Experimental findings from patent US20210300936A1, “PYRAZOLOTRIAZOLOPYRIMIDINE DERIVATIVES AS A2A RECEPTOR ANTAGONIST” (BEIGENE, LTD., priority 2018, published 2021) are described below.

Chain of human A2A receptor (A2AR) (P29274 whole entry): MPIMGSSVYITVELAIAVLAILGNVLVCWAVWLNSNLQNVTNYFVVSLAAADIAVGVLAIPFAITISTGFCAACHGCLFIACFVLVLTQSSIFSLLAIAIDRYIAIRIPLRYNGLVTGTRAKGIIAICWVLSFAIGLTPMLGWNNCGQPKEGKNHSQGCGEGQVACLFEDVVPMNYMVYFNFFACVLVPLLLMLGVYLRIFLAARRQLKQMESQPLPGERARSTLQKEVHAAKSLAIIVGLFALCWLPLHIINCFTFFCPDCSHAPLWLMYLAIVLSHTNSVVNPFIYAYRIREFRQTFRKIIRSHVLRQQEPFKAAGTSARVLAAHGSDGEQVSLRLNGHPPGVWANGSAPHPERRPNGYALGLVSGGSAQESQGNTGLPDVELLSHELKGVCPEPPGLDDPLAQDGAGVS

The test concerns the target human A2A receptor (A2AR) (Homo sapiens, UniProt P29274). Nature of the test: Luciferase reporter assay (HEK293-A2AR-luc2p/CRE/Hygro cells, 3 nM CGS21680). Type of test: cell-based. To be noted: 3 nM CGS21680, 5 h incubation. As to the method:
HEK293 cells were maintained in Dulbecco's modified Eagle's medium (DMEM, Gibco) supplemented with 10% fetal bovine serum (FBS, Thermo Scientific), 100 units/mL penicillin (Gibco), and 0.1 mg/mL streptomycin (Gibco) in a humidified 37° C. environment with 5% C02. Plasmid encoding wild-type human A2A receptor (A2AR) (in pcDNA3.1) was synthesized by Genscript (Nanjing, China). Transfection of the plasmids was performed in 6-well plates with 4×10^5 cells using Lipofectamin 2000 (ThermoFisher Scientific) according to the instruction of the manufacturer. Cell clones that stably express A2AR were established and maintained in the same complete medium as the HEK293 cells in addition of G-418 (Gibico). Expression level of A2AR in each single cell clone was determined using immunoblotting and FACS method. HEK293-A2AR stable cells were then transfected with pGL4.29[luc2P/CRE/Hygro] (Promega) luciferase reporter plasmid for establishing the HEK293-A2AR-luc2p/CRE/Hygro stable cell line.
HEK293-A2AR-luc2p/CRE/Hygro cells were seeded at a density of 5,000 cells/well in DMEM with 1% FBS and 1 U/mL adenosine deaminase (ADA) (Sigma). After 18 h, the cells were treated with 3 nM CGS21680 plus a series dilution of A2AR antagonist, the compounds disclosed herein at the concentration of 0.1˜10000 nM, prepared in DMEM with 1% FBS. After 5 h incubation, the luciferase activity in cells were measured using the Bright-Glo Luciferase Assay System (Promega) according to manufacturer's instructions. The luminescence signal was measured using a PHERAstar FS plate reader (BMG Labtech). […] Maximal luminescence intensity was determined in the presence of 3 nM CGS21680 and was set as 100%. The IC50 value was calculated from a dose dependent inhibition curve across the range of compound concentrations.
In turn, `COCCOc1ccc(N2CCN(C(=O)C(CC(C)C)n3ncc4c3nc(N)n3nc(-c5ccco5)nc43)CC2)cc1` (stereo not drawn) [Compound A16, 2-(5-amino-2-(furan-2-yl)-7H-pyrazolo[4,3-e][1,2,4]triazolo[1,5-c]pyrimidin-7-yl)-1-(4-(4-(2-methoxyethoxy)phenyl)piperazin-1-yl)-4-methylpentan-1-one] registered an IC50 of 1.3 nM.

In the case of `COCCOCCOc1ccc(N2CCN(C(=O)C(CC(C)C)n3ncc4c3nc(N)n3nc(-c5ccco5)nc43)CC2)cc1` (stereo not drawn) [Compound A17, 2-(5-amino-2-(furan-2-yl)-7H-pyrazolo[4,3-e][1,2,4]triazolo[1,5-c]pyrimidin-7-yl)-1-(4-(4-(2-(2-methoxyethoxy)ethoxy)phenyl)piperazin-1-yl)-4-methylpentan-1-one], the IC50 came to 1.1 nM.

As for `CC(C(=O)N1CCN(c2ccc(OCCN(C)C)cc2)CC1)n1ncc2c1nc(N)n1nc(-c3ccco3)nc21` (stereo not drawn) [Compound A18, 2-(5-amino-2-(furan-2-yl)-7H-pyrazolo[4,3-e][1,2,4]triazolo[1,5-c]pyrimidin-7-yl)-1-(4-(4-(2-(dimethylamino)ethoxy)phenyl)piperazin-1-yl)propan-1-one], inhibition was half-maximal at 30.6 nM (IC50).

On to `COCCOc1ccc(N2CCN(C(=O)C(Cc3ccccc3)n3ncc4c3nc(N)n3nc(-c5ccco5)nc43)CC2)cc1` (stereo not drawn) [Compound A19, 2-(5-amino-2-(furan-2-yl)-7H-pyrazolo[4,3-e][1,2,4]triazolo[1,5-c]pyrimidin-7-yl)-1-(4-(4-(2-methoxyethoxy)phenyl)piperazin-1-yl)-3-phenylpropan-1-one], for which half-maximal inhibition (IC50) was put at 6.5 nM.

In the case of `CCCC(C(=O)N1CCN(c2ccc(F)cc2F)CC1)n1ncc2c1nc(N)n1nc(-c3ccco3)nc21` (stereo not drawn) [Compound A20, 2-(5-amino-2-(furan-2-yl)-7H-pyrazolo[4,3-e][1,2,4]triazolo[1,5-c]pyrimidin-7-yl)-1-(4-(2,4-difluorophenyl)piperazin-1-yl)pentan-1-one], the midpoint of inhibition, the IC50, lay at 4.3 nM.

`COCCOCCOc1ccc(N2CCN(C(=O)C(C3CC3)n3ncc4c3nc(N)n3nc(-c5ccco5)nc43)CC2)cc1` (stereo not drawn) [Compound A21, 2-(5-amino-2-(furan-2-yl)-7H-pyrazolo[4,3-e][1,2,4]triazolo[1,5-c]pyrimidin-7-yl)-2-cyclopropyl-1-(4-(4-(2-(2-methoxyethoxy)ethoxy)phenyl)piperazin-1-yl)ethan-1-one]: the IC50 stood at 21.6 nM.

Compound `CC(C)CC(C(=O)N1CCN(c2ccc(F)cc2F)CC1)n1ncc2c1nc(N)n1nc(-c3ccco3)nc21` (stereo not drawn) [Compound A22, 2-(5-amino-2-(furan-2-yl)-7H-pyrazolo[4,3-e][1,2,4]triazolo[1,5-c]pyrimidin-7-yl)-1-(4-(2,4-difluorophenyl)piperazin-1-yl)-4-methylpentan-1-one] came in with an IC50 of 1.5 nM.

For the compound `COCCOc1ccc(N2CCN(C(=O)C(CC(C)C)n3ncc4c3nc(N)n3nc(-c5ccco5)nc43)CC2)c(F)c1` (stereo not drawn) [Compound A23, 2-(5-amino-2-(furan-2-yl)-7H-pyrazolo[4,3-e][1,2,4]triazolo[1,5-c]pyrimidin-7-yl)-1-(4-(2-fluoro-4-(2-methoxyethoxy)phenyl)piperazin-1-yl)-4-methylpentan-1-one], the IC50 came out at 1.4 nM.

Take `CCCC(C(=O)N1CCN(c2ccc(OCCOC)cc2F)CC1)n1ncc2c1nc(N)n1nc(-c3ccco3)nc21` (stereo not drawn) [Compound A24, 2-(5-amino-2-(furan-2-yl)-7H-pyrazolo[4,3-e][1,2,4]triazolo[1,5-c]pyrimidin-7-yl)-1-(4-(2-fluoro-4-(2-methoxyethoxy)phenyl)piperazin-1-yl)pentan-1-one]: inhibition was half-maximal at 4.4 nM (IC50).

Regarding `CCCC(C(=O)N1CCN(c2c(F)cc(OCCOC)cc2F)CC1)n1ncc2c1nc(N)n1nc(-c3ccco3)nc21` (stereo not drawn) [Compound A25, 2-(5-amino-2-(furan-2-yl)-7H-pyrazolo[4,3-e][1,2,4]triazolo[1,5-c]pyrimidin-7-yl)-1-(4-(2,6-difluoro-4-(2-methoxyethoxy)phenyl)piperazin-1-yl)pentan-1-one], inhibition was half-maximal at 4.5 nM (IC50).

On to `COCCOc1ccc(N2CCN(C(=O)C(COC)n3ncc4c3nc(N)n3nc(-c5ccco5)nc43)CC2)cc1` (stereo not drawn) [Compound A26, 2-(5-amino-2-(furan-2-yl)-7H-pyrazolo[4,3-e][1,2,4]triazolo[1,5-c]pyrimidin-7-yl)-3-methoxy-1-(4-(4-(2-methoxyethoxy)phenyl)piperazin-1-yl)propan-1-one], for which it took 43.8 nM to reach half-maximal inhibition (IC50).

Compound `COCCOCCOc1ccc(N2CCN(C(=O)C(COC)n3ncc4c3nc(N)n3nc(-c5ccco5)nc43)CC2)cc1` (stereo not drawn) [Compound A27, 2-(5-amino-2-(furan-2-yl)-7H-pyrazolo[4,3-e][1,2,4]triazolo[1,5-c]pyrimidin-7-yl)-3-methoxy-1-(4-(4-(2-(2-methoxyethoxy)ethoxy)phenyl)piperazin-1-yl)propan-1-one] gave a half-inhibitory concentration (IC50) of 39.4 nM.

In turn, `COCCOc1ccc(N2CCN(C(=O)C(c3ccc(F)cc3)n3ncc4c3nc(N)n3nc(-c5ccco5)nc43)CC2)cc1` (stereo not drawn) [Compound A28, 2-(5-amino-2-(furan-2-yl)-7H-pyrazolo[4,3-e][1,2,4]triazolo[1,5-c]pyrimidin-7-yl)-2-(4-fluorophenyl)-1-(4-(4-(2-methoxyethoxy)phenyl)piperazin-1-yl)ethan-1-one] showed an IC50 of 7.6 nM. Against the preceding compound, the IC50 is about 5.2-fold lower.

In the case of `COCCOc1ccc(N2CCN(C(=O)C(c3ccc(OC)cc3)n3ncc4c3nc(N)n3nc(-c5ccco5)nc43)CC2)cc1` (stereo not drawn) [Compound A29, 2-(5-amino-2-(furan-2-yl)-7H-pyrazolo[4,3-e][1,2,4]triazolo[1,5-c]pyrimidin-7-yl)-1-(4-(4-(2-methoxyethoxy)phenyl)piperazin-1-yl)-2-(4-methoxyphenyl)ethan-1-one], the midpoint of inhibition, the IC50, lay at 20.5 nM. This IC50 is about 2.7-fold higher than that of the compound before.

`CNCCOc1ccc(N2CCN(C(=O)C(C)n3ncc4c3nc(N)n3nc(-c5ccco5)nc43)CC2)cc1` (stereo not drawn) [Compound A30, 2-(5-amino-2-(furan-2-yl)-7H-pyrazolo[4,3-e][1,2,4]triazolo[1,5-c]pyrimidin-7-yl)-1-(4-(4-(2-(methylamino)ethoxy)phenyl)piperazin-1-yl)propan-1-one] registered an IC50 of 22 nM.

`COCCOc1ccc(N2CCN(C(=O)C(c3ccccc3OC)n3ncc4c3nc(N)n3nc(-c5ccco5)nc43)CC2)cc1` (stereo not drawn) [Compound A31, 2-(5-amino-2-(furan-2-yl)-7H-pyrazolo[4,3-e][1,2,4]triazolo[1,5-c]pyrimidin-7-yl)-1-(4-(4-(2-methoxyethoxy)phenyl)piperazin-1-yl)-2-(2-methoxyphenyl)ethan-1-one]: the IC50 was 0.6 nM.

In the case of `CCCCC(C(=O)N1CCN(c2ccc(OCCN(C)C)cc2)CC1)n1ncc2c1nc(N)n1nc(-c3ccco3)nc21` (stereo not drawn) [Compound A32, 2-(5-amino-2-(furan-2-yl)-7H-pyrazolo[4,3-e][1,2,4]triazolo[1,5-c]pyrimidin-7-yl)-1-(4-(4-(2-(dimethylamino)ethoxy)phenyl)piperazin-1-yl)hexan-1-one], it took 7.2 nM to reach half-maximal inhibition (IC50).

`COCCOc1ccc(N2CCN(C(=O)C(c3ccc4ccccc4c3)n3ncc4c3nc(N)n3nc(-c5ccco5)nc43)CC2)cc1` (stereo not drawn) [Compound A33, 2-(5-amino-2-(furan-2-yl)-7H-pyrazolo[4,3-e][1,2,4]triazolo[1,5-c]pyrimidin-7-yl)-1-(4-(4-(2-methoxyethoxy)phenyl)piperazin-1-yl)-2-(naphthalen-2-yl)ethan-1-one] gave an IC50 of 13.3 nM. This IC50 is about 1.8-fold higher than that of the compound before.
